The source made the active and inactive calls. How the calls were made is not given here.
Test system: rodent lifetime carcinogenesis bioassay, tumor incidence TD50
Experiment: chronic cancer bioassays in animals – CPDB, compiled studies (AID 1745844)

## OC(Cn1cncn1)(Cn1cncn1)c1ccc(F)cc1F
mouse, strain Charles River CD1, females, in feed, site: any site (literature study), lesion: several types, types named in the paper, dosed 104 weeks, study length 104 weeks
  carcinogen call: negative (inactive)
mouse, strain Charles River CD1, females, in feed, site: liver, lesion: hepatocellular adenoma, dosed 104 weeks, study length 104 weeks
  TD50: 129 mg/kg/day (inactive)
mouse, strain Charles River CD1, females, in feed, site: liver, lesion: hepatocellular carcinoma, dosed 104 weeks, study length 104 weeks
  carcinogen call: negative (inactive)
mouse, strain Charles River CD1, males, in feed, site: any site (literature study), lesion: several types, types named in the paper, dosed 104 weeks, study length 104 weeks
  TD50: 239 mg/kg/day (inactive)
mouse, strain Charles River CD1, males, in feed, site: liver, lesion: hepatocellular adenoma, dosed 104 weeks, study length 104 weeks
  TD50: 144 mg/kg/day (inactive)
mouse, strain Charles River CD1, males, in feed, site: liver, lesion: hepatocellular carcinoma, dosed 104 weeks, study length 104 weeks
  carcinogen call: negative (inactive)
rat, strain Charles River CD (Sprague-Dawley), females, in feed, site: any site (literature study), lesion: several types, types named in the paper, dosed 104 weeks, study length 104 weeks
  carcinogen call: negative (inactive)
rat, strain Charles River CD (Sprague-Dawley), females, in feed, site: liver, lesion: hepatocellular adenoma, dosed 104 weeks, study length 104 weeks
  TD50: 298 mg/kg/day (inactive)
rat, strain Charles River CD (Sprague-Dawley), females, in feed, site: liver, lesion: hepatocellular carcinoma, dosed 104 weeks, study length 104 weeks
  carcinogen call: negative (inactive)
rat, strain Charles River CD (Sprague-Dawley), females, in feed, site: mammary gland, lesion: adenoma, dosed 104 weeks, study length 104 weeks
  TD50: 412 mg/kg/day (inactive)
rat, strain Charles River CD (Sprague-Dawley), females, in feed, site: mammary gland, lesion: carcinoma, dosed 104 weeks, study length 104 weeks
  carcinogen call: negative (inactive)
rat, strain Charles River CD (Sprague-Dawley), females, in feed, site: mammary gland, lesion: fibroadenoma, dosed 104 weeks, study length 104 weeks
  carcinogen call: negative (inactive)
rat, strain Charles River CD (Sprague-Dawley), females, in feed, site: mammary gland, lesion: several types, types named in the paper, dosed 104 weeks, study length 104 weeks
  carcinogen call: negative (inactive)
rat, strain Charles River CD (Sprague-Dawley), males, in feed, site: adrenal medulla, lesion: pheochromocytoma, dosed 104 weeks, study length 104 weeks
  carcinogen call: negative (inactive)
rat, strain Charles River CD (Sprague-Dawley), males, in feed, site: any site (literature study), lesion: several types, types named in the paper, dosed 104 weeks, study length 104 weeks
  carcinogen call: negative (inactive)
rat, strain Charles River CD (Sprague-Dawley), males, in feed, site: liver, lesion: hepatocellular adenoma, dosed 104 weeks, study length 104 weeks
  TD50: 80.7 mg/kg/day

## Cn1cc(C(=O)O)c(=O)c2ccc(/C=C/c3ccc([N+](=O)[O-])o3)nc21
mouse, strain ICR/Jcl, both sexes, in feed, site: forestomach, lesion: squamous-cell carcinoma, dosed 54 weeks, study length 54 weeks
  TD50: 10.3 mg/kg/day
mouse, strain ICR/Jcl, both sexes, in feed, site: lung, lesion: adenoma, dosed 54 weeks, study length 54 weeks
  TD50: 8.03 mg/kg/day
mouse, strain ICR/Jcl, both sexes, in feed, site: lung, lesion: carcinoma, dosed 54 weeks, study length 54 weeks
  TD50: 21.9 mg/kg/day
mouse, strain ICR/Jcl, both sexes, in feed, site: thymus gland, lesion: lymphatic leukemia, dosed 54 weeks, study length 54 weeks
  TD50: 26.5 mg/kg/day

## C=COC(N)=O
mouse, strain C57BL/10J, females, i.p., site: liver, lesion: hemangioma, dosed 35 weeks, study length 59 weeks
  TD50: 0.147 mg/kg/day
mouse, strain C57BL/10J, females, i.p., site: liver, lesion: hemangiosarcoma, dosed 35 weeks, study length 59 weeks
  TD50: 0.138 mg/kg/day
mouse, strain C57BL/10J, females, i.p., site: liver, lesion: hepatocellular adenoma, dosed 35 weeks, study length 59 weeks
  TD50: 4.99 mg/kg/day
mouse, strain C57BL/10J, females, i.p., site: liver, lesion: hepatocellular carcinoma, dosed 35 weeks, study length 59 weeks
  TD50: 0.503 mg/kg/day
mouse, strain C57BL/10J, males, i.p., site: liver, lesion: hemangioma, dosed 35 weeks, study length 59 weeks
  TD50: 0.112 mg/kg/day
mouse, strain C57BL/10J, males, i.p., site: liver, lesion: hemangiosarcoma, dosed 35 weeks, study length 59 weeks
  TD50: 0.118 mg/kg/day
mouse, strain C57BL/10J, males, i.p., site: liver, lesion: hepatocellular adenoma, dosed 35 weeks, study length 59 weeks
  TD50: 2.69 mg/kg/day
mouse, strain C57BL/10J, males, i.p., site: liver, lesion: hepatocellular carcinoma, dosed 35 weeks, study length 59 weeks
  TD50: 0.629 mg/kg/day

## C#C[C@]1(OC(C)=O)CC[C@H]2[C@@H]3CCC4=C[C@@H](OC(C)=O)CC[C@@H]4[C@H]3CC[C@@]21C
rat, strain Wistary/NIN, females, by gavage, site: liver, lesion: one or several types, types not named, dosed 60 weeks, study length 60 weeks
  carcinogen call: negative (inactive)

## O=CCBr
mouse, strain B6C3F1, females, in drinking water, site: any site (literature study), lesion: several types, types named in the paper, dosed 80 weeks, study length 80 weeks
  carcinogen call: negative (inactive)
mouse, strain B6C3F1, females, in drinking water, site: forestomach, lesion: squamous-cell papilloma, dosed 80 weeks, study length 80 weeks
  TD50: 2520 mg/kg/day (inactive)
mouse, strain B6C3F1, females, in drinking water, site: liver, lesion: hemangioma, dosed 80 weeks, study length 80 weeks
  TD50: 1020 mg/kg/day (inactive)
mouse, strain B6C3F1, females, in drinking water, site: lung, lesion: one or several types, types not named, dosed 80 weeks, study length 80 weeks
  carcinogen call: negative (inactive)
mouse, strain B6C3F1, males, in drinking water, site: any site (literature study), lesion: several types, types named in the paper, dosed 78 weeks, study length 78 weeks
  carcinogen call: negative (inactive)
mouse, strain B6C3F1, males, in drinking water, site: forestomach, lesion: squamous-cell papilloma, dosed 78 weeks, study length 78 weeks
  TD50: 1890 mg/kg/day (inactive)
mouse, strain B6C3F1, males, in drinking water, site: liver, lesion: one or several types, types not named, dosed 78 weeks, study length 78 weeks
  carcinogen call: negative (inactive)
mouse, strain B6C3F1, males, in drinking water, site: lung, lesion: papillary tumor, dosed 78 weeks, study length 78 weeks
  carcinogen call: negative (inactive)

## Cn1c(=O)c2[nH]cnc2n(C)c1=O
mouse, strain B6C3F1, females, by gavage, site: all sites, lesion: histiocytic sarcoma, dosed 103 weeks, study length 104 weeks
  TD50: 20.5 mg/kg/day (inactive)
mouse, strain B6C3F1, males, by gavage, site: any site (literature study), lesion: several types, types named in the paper, dosed 103 weeks, study length 104 weeks
  carcinogen call: negative (inactive)
rat, strain Fischer 344, females, by gavage, site: any site (literature study), lesion: several types, types named in the paper, dosed 104 weeks, study length 104 weeks
  carcinogen call: negative (inactive)
rat, strain Fischer 344, males, by gavage, site: any site (literature study), lesion: several types, types named in the paper, dosed 104 weeks, study length 104 weeks
  carcinogen call: negative (inactive)

## Cc1csc(NNC=O)n1
rat, strain Sprague-Dawley, females, in feed, site: any site (literature study), lesion: several types, types named in the paper, dosed 46 weeks, study length 64 weeks
  TD50: 14.4 mg/kg/day
rat, strain Sprague-Dawley, females, in feed, site: mammary gland, lesion: adenofibroma, dosed 46 weeks, study length 64 weeks
  TD50: 14.4 mg/kg/day

## Cc1cc(N=Nc2c(O)ccc3ccccc23)c(S(=O)(=O)O)cc1Cl
mouse, strain B6C3F1, females, in feed, site: any site (literature study), lesion: several types, types named in the paper, dosed 103 weeks, study length 105 weeks
  TD50: 18200 mg/kg/day (inactive)
mouse, strain B6C3F1, females, in feed, site: liver, lesion: hepatocellular adenoma + hepatocellular carcinoma + neoplastic nodule, dosed 103 weeks, study length 105 weeks
  TD50: 9240 mg/kg/day
mouse, strain B6C3F1, females, in feed, site: lung, lesion: alveolar/bronchiolar adenoma + alveolar/bronchiolar carcinoma, dosed 103 weeks, study length 105 weeks
  TD50: 9200 mg/kg/day
mouse, strain B6C3F1, males, in feed, site: any site (literature study), lesion: several types, types named in the paper, dosed 103 weeks, study length 104 weeks
  TD50: 2120 mg/kg/day (inactive)
mouse, strain B6C3F1, males, in feed, site: liver, lesion: hepatocellular adenoma + hepatocellular carcinoma + neoplastic nodule, dosed 103 weeks, study length 104 weeks
  TD50: 781 mg/kg/day
mouse, strain B6C3F1, males, in feed, site: lung, lesion: alveolar/bronchiolar adenoma + alveolar/bronchiolar carcinoma, dosed 103 weeks, study length 104 weeks
  TD50: 5390 mg/kg/day
rat, strain Fischer 344, females, in feed, site: liver, lesion: hepatocellular adenoma + hepatocellular carcinoma + neoplastic nodule, dosed 103 weeks, study length 104 weeks
  TD50: 1140 mg/kg/day
rat, strain Fischer 344, females, in feed, site: liver, lesion: neoplastic nodule, dosed 103 weeks, study length 104 weeks
  TD50: 1140 mg/kg/day
rat, strain Fischer 344, males, in feed, site: any site (literature study), lesion: several types, types named in the paper, dosed 103 weeks, study length 104 weeks
  TD50: 331 mg/kg/day
rat, strain Fischer 344, males, in feed, site: liver + spleen, lesion: hepatocellular carcinoma + neoplastic nodule + fibrosarcoma + leiomyosarcoma + osteosarcoma + sarcoma, NOS, dosed 103 weeks, study length 104 weeks
  TD50: 104 mg/kg/day
rat, strain Fischer 344, males, in feed, site: liver, lesion: hepatocellular adenoma + hepatocellular carcinoma + neoplastic nodule, dosed 103 weeks, study length 104 weeks
  TD50: 357 mg/kg/day
rat, strain Fischer 344, males, in feed, site: liver, lesion: hepatocellular carcinoma + neoplastic nodule, dosed 103 weeks, study length 104 weeks
  TD50: 357 mg/kg/day
rat, strain Fischer 344, males, in feed, site: liver, lesion: neoplastic nodule, dosed 103 weeks, study length 104 weeks
  TD50: 265 mg/kg/day
rat, strain Fischer 344, males, in feed, site: spleen, lesion: fibrosarcoma + leiomyosarcoma + osteosarcoma + sarcoma, NOS, dosed 103 weeks, study length 104 weeks
  TD50: 146 mg/kg/day
rat, strain Fischer 344, males, in feed, site: spleen, lesion: fibrosarcoma, dosed 103 weeks, study length 104 weeks
  TD50: 211 mg/kg/day
rat, strain Fischer 344, males, in feed, site: spleen, lesion: osteosarcoma, dosed 103 weeks, study length 104 weeks
  TD50: 728 mg/kg/day
rat, strain Osborne-Mendel, females, in feed, site: pituitary gland, lesion: adenoma, dosed 108 weeks, study length 108 weeks
  carcinogen call: negative (inactive)
rat, strain Osborne-Mendel, males, in feed, site: all sites, lesion: fibrosarcoma, dosed 108 weeks, study length 108 weeks
  carcinogen call: negative (inactive)
rat, strain Osborne-Mendel, males, in feed, site: testis, lesion: interstitial-cell adenoma, dosed 108 weeks, study length 108 weeks
  TD50: 28600 mg/kg/day (inactive)

## CN(C#N)N=O
rat, strain Sprague-Dawley, females, in drinking water, site: forestomach, lesion: carcinoma, dosed 60 weeks, study length 95 weeks
  TD50: 1.17 mg/kg/day
rat, strain Sprague-Dawley, females, in drinking water, site: forestomach, lesion: several types, types named in the paper, dosed 60 weeks, study length 95 weeks
  TD50: 0.48 mg/kg/day

## [Cl][Fe]([Cl])[Cl]
rat, strain F344/DuCrj, females, in drinking water, site: any site (literature study), lesion: one or several types, types not named, dosed 104 weeks, study length 112 weeks
  TD50: 505 mg/kg/day (inactive)
rat, strain F344/DuCrj, females, in drinking water, site: liver, lesion: neoplastic nodule, dosed 104 weeks, study length 112 weeks
  carcinogen call: negative (inactive)
rat, strain F344/DuCrj, males, in drinking water, site: any site (literature study), lesion: one or several types, types not named, dosed 104 weeks, study length 112 weeks
  carcinogen call: negative (inactive)
rat, strain F344/DuCrj, males, in drinking water, site: liver, lesion: neoplastic nodule, dosed 104 weeks, study length 112 weeks
  TD50: 8810 mg/kg/day (inactive)

## N[C@@H](CC(=O)O)C(=O)O
rat, strain F344/DuCrj, females, in drinking water, site: any site (literature study), lesion: several types, types named in the paper, dosed 100 weeks, study length 100 weeks
  TD50: 8340 mg/kg/day (inactive)
rat, strain F344/DuCrj, females, in drinking water, site: liver, lesion: one or several types, types not named, dosed 100 weeks, study length 100 weeks
  carcinogen call: negative (inactive)
rat, strain F344/DuCrj, males, in drinking water, site: any site (literature study), lesion: several types, types named in the paper, dosed 100 weeks, study length 100 weeks
  TD50: 2720 mg/kg/day (inactive)
rat, strain F344/DuCrj, males, in drinking water, site: liver, lesion: one or several types, types not named, dosed 100 weeks, study length 100 weeks
  carcinogen call: negative (inactive)
